Reference: US20260109707A1, “HETEROBIFUNCTIONAL COMPOUNDS AND METHODS OF TREATING DISEASE” (Halda Therapeutics OpCo. Inc., priority 2022, published 2026)
Like-named read-outs stand apart in the source and are kept apart here.

How the values were obtained:
VCaP cells = experiment: Cellular growth inhibition assay for VCaP cells (CellTiter-Glo, 72 hours); type: cell-based, human
How it was run: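 Luminescent viability signal after 72 h of compound exposure gave GI50 values by four-parameter nonlinear regression. Compounds were added in 0.5% DMSO to cells plated 24 h earlier at 5000/well in DMEM containing 10% FBS.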

[1] = system: T-Rex 293 cell line SC3 cells lacking increased expression of androgen receptor protein; experiment: Cellular growth inhibition assay, T-Rex 293 SC3 cells without doxycycline (CellTiter-Glo, 72 hours); type: cell-based; conditions: T-Rex 293 cell line SC3 cells not exposed to doxycycline (lacking increased androgen receptor expression)
How it was run: (§1)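 Growth inhibition is measured in an inducible AR-expressing T-Rex 293 clone, SC3, cultured with or without 10 ng/mL doxycycline in hormone-depleted medium. Test compounds are applied for 72 hours. GI50 values derive from CellTiter-Glo 2.0 signal fitted by four-parameter regression.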

T47D cells = experiment: Cellular growth inhibition assay for T47D cells (CellTiter-Glo, 72 hours); type: cell-based, human; conditions: 72 hours treatment
Experimental: T47D cells were purchased from American Type Cell Culture (ATCC Cat #HTB-133) and then seeded on poly-D-lysine coated, black clear-bottom 384-well plates at 3000/well in 25 μL Dulbecco's Modified Eagle Medium (DMEM) supplemented with 10% w/w Fetal bovine serum (FBS), 0.2 units/mL recombinant human insulin (Gibco Cat #12585014), and 1% w/w Pen-Strep. Pen-Strep is a commercially available mixture of penicillin G and streptomycin, which is used in mammalian cell culture media to prevent bacterial contamination. Dulbecco's Modified Eagle Medium (DMEM) supplemented with 10% w/w fetal bovine serum (FBS), 0.2 units/mL recombinant human insulin, and 1% w/w Pen-Strep is herein referred to as Treatment Medium. Following seeding of cells in the plates, the plates were spun at 300×g for 30 seconds, then equilibrated to room temperature for 30 minutes, and then deposited in a humidified tissue culture incubator maintained at 37° C. with 5% CO2.
At 24 hours after seeding of the cells, dilutions of test compound were prepared in DMSO and dissolved in Treatment Medium, to achieve a final DMSO concentration of 0.5% w/w, thereby providing the Test Compound Solution. A 25 μL aliquot of the Test Compound Solution was added to cells in the well plates. An equal volume of a solution containing DMSO and Treatment Medium was used as a negative control. Following treatment of cells with Test Compound Solution or said equal volume of a solution containing DMSO and Treatment Medium, the plates were spun at 300×g for 30 seconds, and then left in an incubator for 72 hours.
At the end of the treatment duration, cell viability was quantified with CellTiter-Glo 2.0 reagent (Promega Cat #G9243). For this purpose, plates were equilibrated to room temperature for 30 minutes, and then 25 μL of CellTiter-Glo 2.0 reagent was added to cells in the plate wells. Plates were then agitated on a shaker for two minutes at 500 rpm and subsequently incubated at room temperature for 10 minutes. Following incubation, the plates were spun at 3000×g for 30 seconds, then sealed with an optical adhesive cover, and luminescence readings were measured with an EnVision Plate Reader (Perkin Elmer).
Data was normalized using zero luminescence for baseline. A four-parameter non-linear regression curve fit was applied to dose-response data in GraphPad Prism data analysis software to determine the half-maximal growth inhibitory concentration (GI50) for each test compound.

[2] = system: T-Rex 293 cell line SC3 cells having increased expression of androgen receptor protein due to exposure to doxycycline; experiment: Cellular growth inhibition assay, T-Rex 293 SC3 cells with doxycycline (CellTiter-Glo, 72 hours); type: cell-based; conditions: T-Rex 293 SC3 cells with increased androgen receptor expression due to doxycycline (10 ng/mL)
How it was run: as §1

SMILES | GI50 (VCaP cells) [nM] | GI50 [1] [nM] | GI50 (T47D cells) [nM] | GI50 [2] [nM] | GI50 (VCaP cells; Homo sapiens, VCaP, 72 h) [nM] | GI50 ([1]; 72 h) [nM] | GI50 (T47D cells; Homo sapiens, T47D, 72 h) [nM] | GI50 ([2]; 72 h) [nM]
Cc1sc2c(c1C)C(c1ccc(OC3CN(CC4CCN(c5ccc(C(=O)N[C@H]6CC[C@H](Oc7ccc(C#N)c(Cl)c7)CC6)nn5)CC4)C3)cc1)=N[C@@H](Cc1ncco1)c1nnc(C)n1-2 [I-87] | < 500 | < 500 | < 500 | < 500 | – | – | – | –
Cc1sc2c(c1C)C(c1ccc(OC3CC4(CCN(c5ccc(C(=O)N[C@H]6CC[C@H](Oc7ccc(C#N)c(Cl)c7)CC6)cn5)CC4)C3)cc1)=N[C@@H](Cc1ncco1)c1nnc(C)n1-2 [I-88] | – | – | – | – | < 500 | < 500 | < 500 | < 500
Cc1sc2c(c1C)C(c1ccc(OC3CC4(CCN(c5ccc(C(=O)N[C@H]6CC[C@H](Oc7ccc(C#N)c(Cl)c7)CC6)nc5)CC4)C3)cc1)=N[C@@H](Cc1ncco1)c1nnc(C)n1-2 [I-89] | – | – | – | – | < 500 | < 500 | < 500 | < 500
Cc1sc2c(c1C)C(c1ccc(O[C@H]3C[C@H](OC4CCN(c5ccc(C(=O)N[C@H]6CC[C@H](Oc7ccc(C#N)c(Cl)c7)CC6)nn5)CC4)C3)cc1)=N[C@@H](Cc1ncco1)c1nnc(C)n1-2 [I-90] | – | – | – | – | < 500 | < 500 | < 500 | < 500
Cc1sc2c(c1C)C(c1ccc(OC3CC4(C3)CN(c3ccc(C(=O)N[C@H]5CC[C@H](Oc6ccc(C#N)c(Cl)c6)CC5)nn3)C4)cc1)=N[C@@H](Cc1ncco1)c1nnc(C)n1-2 [I-91] | – | – | – | – | < 500 | < 500 | < 500 | < 500
Cc1sc2c(c1C)C(c1ccc(O[C@H]3C[C@@]4(CCCN(c5ccc(C(=O)N[C@H]6CC[C@H](Oc7ccc(C#N)c(Cl)c7)CC6)nn5)C4)C3)cc1)=N[C@@H](Cc1ncco1)c1nnc(C)n1-2 [I-92] | – | – | – | – | < 500 | < 500 | 500 to 1500 | < 500
Cc1sc2c(c1C)C(c1ccc(O[C@H]3C[C@]4(CCCN(c5ccc(C(=O)N[C@H]6CC[C@H](Oc7ccc(C#N)c(Cl)c7)CC6)nn5)C4)C3)cc1)=N[C@@H](Cc1ncco1)c1nnc(C)n1-2 [I-93] | – | – | – | – | < 500 | < 500 | 500 to 1500 | < 500
Cc1sc2c(c1C)C(c1ccc(O[C@H]3CC[C@@]4(CCCN(c5ccc(C(=O)N[C@H]6CC[C@H](Oc7ccc(C#N)c(Cl)c7)CC6)nn5)C4)C3)cc1)=N[C@@H](Cc1ncco1)c1nnc(C)n1-2 [I-96] | – | – | – | – | < 500 | < 500 | < 500 | < 500
Cc1sc2c(c1C)C(c1ccc(O[C@H]3CC[C@]4(CCCN(c5ccc(C(=O)N[C@H]6CC[C@H](Oc7ccc(C#N)c(Cl)c7)CC6)nn5)C4)C3)cc1)=N[C@@H](Cc1ncco1)c1nnc(C)n1-2 [I-97] | – | – | – | – | < 500 | < 500 | < 500 | < 500
Cc1sc2c(c1C)C(c1ccc(O[C@@H]3CC[C@]4(CCCN(c5ccc(C(=O)N[C@H]6CC[C@H](Oc7ccc(C#N)c(Cl)c7)CC6)nn5)C4)C3)cc1)=N[C@@H](Cc1ncco1)c1nnc(C)n1-2 [I-98] | – | – | – | – | < 500 | < 500 | < 500 | < 500
Cc1sc2c(c1C)C(c1ccc(OC3CN(C4CCN(c5ccc(C(=O)N[C@H]6CC[C@H](Oc7ccc(C#N)c(Cl)c7)CC6)nn5)C4)C3)cc1)=N[C@@H](Cc1ncco1)c1nnc(C)n1-2 (stereo partly shown) [I-101] | – | – | – | – | < 500 | < 500 | < 500 | < 500
Cc1sc2c(c1C)C(c1ccc(OC[C@H]3CC[C@@]4(CCCN(c5ccc(C(=O)N[C@H]6CC[C@H](Oc7ccc(C#N)c(Cl)c7)CC6)nn5)C4)C3)cc1)=N[C@@H](Cc1ncco1)c1nnc(C)n1-2 [I-102] | – | – | – | – | < 500 | < 500 | < 500 | < 500
Cc1sc2c(c1C)C(c1ccc(OC[C@@H]3CC[C@@]4(CCCN(c5ccc(C(=O)N[C@H]6CC[C@H](Oc7ccc(C#N)c(Cl)c7)CC6)nn5)C4)C3)cc1)=N[C@@H](Cc1ncco1)c1nnc(C)n1-2 [I-103] | – | – | – | – | < 500 | < 500 | < 500 | < 500
Cc1sc2c(c1C)C(c1ccc(OC[C@H]3C[C@]4(CCCN(c5ccc(C(=O)N[C@H]6CC[C@H](Oc7ccc(C#N)c(Cl)c7)CC6)nn5)C4)C3)cc1)=N[C@@H](Cc1ncco1)c1nnc(C)n1-2 [I-104] | < 500 | < 500 | < 500 | – | – | – | – | < 500
Cc1sc2c(c1C)C(c1ccc(OC[C@H]3C[C@@]4(CCCN(c5ccc(C(=O)N[C@H]6CC[C@H](Oc7ccc(C#N)c(Cl)c7)CC6)nn5)C4)C3)cc1)=N[C@@H](Cc1ncco1)c1nnc(C)n1-2 [I-105] | – | – | – | – | < 500 | < 500 | < 500 | < 500
CNc1ccc2c(n1)C(c1ccc(OC3CC4(CCN(c5ccc(C(=O)N[C@H]6CC[C@H](Oc7ccc(C#N)c(Cl)c7)CC6)nn5)CC4)C3)cc1)=NCc1onc(C)c1-2 [I-106] | – | – | – | – | < 500 | > 3000 | > 3000 | < 500
CNc1ccc2c(n1)C(c1ccc(OC3CC4(CCCN(c5ccc(C(=O)N[C@H]6CC[C@H](Oc7ccc(C#N)c(Cl)c7)CC6)nn5)C4)C3)cc1)=NCc1onc(C)c1-2 (stereo partly shown) [I-107] | – | – | – | – | > 3000 | > 3000 | > 3000 | < 500
Cc1sc2c(c1C)C(c1ccc(OC3CC4(CCN(c5ccc(C(=O)N[C@H]6CC[C@H](Oc7ccc(C#N)c(Cl)c7)CC6)cc5)CC4)C3)cc1)=N[C@@H](Cc1ncco1)c1nnc(C)n1-2 [I-108] | – | – | – | – | < 500 | < 500 | < 500 | < 500
Cc1sc2c(c1C)C(c1ccc(CCOC3CCN(c4ccc(C(=O)N[C@H]5CC[C@H](Oc6ccc(C#N)c(Cl)c6)CC5)nn4)CC3)cc1)=NC(Cc1ncco1)c1nnc(C)n1-2 (stereo partly shown) [I-110] | – | – | – | – | < 500 | > 3000 | < 500 | < 500
Cc1sc2c(c1C)C(c1ccc(CC3CC4(CCN(c5ccc(C(=O)N[C@H]6CC[C@H](Oc7ccc(C#N)c(Cl)c7)CC6)nn5)CC4)C3)cc1)=N[C@H](Cc1ncco1)c1nnc(C)n1-2 [I-111] | – | – | – | – | < 500 | > 3000 | > 3000 | < 500
Cc1sc2c(c1C)C(c1ccc(CC3CC4(CCN(c5ccc(C(=O)N[C@H]6CC[C@H](Oc7ccc(C#N)c(Cl)c7)CC6)nn5)CC4)C3)cc1)=N[C@@H](Cc1ncco1)c1nnc(C)n1-2 [I-112] | – | – | – | – | < 500 | < 500 | < 500 | < 500
Cc1sc2c(c1C)C(c1ccc(CC3CN(CC4CCN(c5ccc(C(=O)N[C@H]6CC[C@H](Oc7ccc(C#N)c(Cl)c7)CC6)nn5)CC4)C3)cc1)=N[C@@H](Cc1ncco1)c1nnc(C)n1-2 [I-113] | – | – | – | – | < 500 | 500 to 1500 | < 500 | < 500
